Values quoted from earlier work as cited in patent US20190202814A1, “PROCESSES FOR PREPARATION OF EMPAGLIFLOZIN” (CADILA HEALTHCARE LIMITED, priority 2015, published 2019).

What was measured:
[1] = crystalline solid

Q: For `OC[C@H]1O[C@@H](c2ccc(Cl)c(Cc3ccc(O[C@H]4CCOC4)cc3)c2)[C@H](O)[C@@H](O)[C@@H]1O` [Empagliflozin, (1S)-1,5-anhydro-1-{4-chloro-3-(4-[(3S)-tetrahydrofuran-3-yloxy]benzyl}phenyl)-D-glucitol], which solubility in acetonitrile (acetonitrile) is on record?
A: very slightly soluble

Q: What about the solubility in ethanol (ethanol) of the same compound?
A: very slightly soluble

Q: What about the solubility in methanol (methanol) of the same compound?
A: sparingly soluble

Q: What about the solubility in toluene (toluene) of the same compound?
A: practically insoluble

Q: What about the solubility in water (water) of the same compound?
A: very slightly soluble

Q: And the hygroscopicity [1]?
A: non-hygroscopic
